Experimental data as given in ChEMBL document CHEMBL1909046, “DrugMatrix in vitro pharmacology data”.

Experiments:
[1] = target: T1, Alpha-1D adrenergic receptor (Homo sapiens, UniProt P25100); assay type: cell membranes, HEK293, Membrane; conditions: hek293; also: in other assays of this panel Not Active means under 50% inhibition at 10 µM
T1 sequence (P25100 whole entry): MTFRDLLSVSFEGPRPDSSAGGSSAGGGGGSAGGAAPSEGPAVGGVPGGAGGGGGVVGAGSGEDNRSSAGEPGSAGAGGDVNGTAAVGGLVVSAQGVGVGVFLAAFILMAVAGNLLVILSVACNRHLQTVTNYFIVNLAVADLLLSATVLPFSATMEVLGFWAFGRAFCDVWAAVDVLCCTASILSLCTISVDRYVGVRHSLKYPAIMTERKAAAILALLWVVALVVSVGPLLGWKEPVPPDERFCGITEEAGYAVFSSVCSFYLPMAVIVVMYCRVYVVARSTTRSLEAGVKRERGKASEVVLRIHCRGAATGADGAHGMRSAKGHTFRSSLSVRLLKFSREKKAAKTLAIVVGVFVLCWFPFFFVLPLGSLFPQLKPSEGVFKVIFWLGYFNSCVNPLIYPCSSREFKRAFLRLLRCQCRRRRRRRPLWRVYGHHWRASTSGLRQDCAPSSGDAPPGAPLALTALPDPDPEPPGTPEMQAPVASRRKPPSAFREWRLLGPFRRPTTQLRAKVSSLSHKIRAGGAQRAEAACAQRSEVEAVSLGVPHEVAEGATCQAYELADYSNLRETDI

[2] = target: T2, C-C chemokine receptor type 4 (Homo sapiens, UniProt P51679); assay type: cell membranes, Membrane; conditions: chem-1; also: in other assays of this panel Not Active means under 50% inhibition at 10 µM
T2 sequence (P51679 whole entry): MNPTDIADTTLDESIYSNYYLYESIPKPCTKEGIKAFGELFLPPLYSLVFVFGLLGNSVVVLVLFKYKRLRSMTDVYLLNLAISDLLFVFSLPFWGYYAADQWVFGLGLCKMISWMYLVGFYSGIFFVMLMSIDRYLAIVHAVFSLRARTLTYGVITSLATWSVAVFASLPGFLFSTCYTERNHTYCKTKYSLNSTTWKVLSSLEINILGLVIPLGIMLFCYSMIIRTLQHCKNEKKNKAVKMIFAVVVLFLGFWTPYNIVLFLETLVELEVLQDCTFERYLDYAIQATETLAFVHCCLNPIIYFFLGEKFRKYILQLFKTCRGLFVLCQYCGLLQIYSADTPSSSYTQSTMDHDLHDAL

[3] = target: T3, C-X-C chemokine receptor type 1 (Homo sapiens, UniProt P25024); also: in other assays of this panel Not Active means under 50% inhibition at 10 µM
T3 sequence (P25024 whole entry): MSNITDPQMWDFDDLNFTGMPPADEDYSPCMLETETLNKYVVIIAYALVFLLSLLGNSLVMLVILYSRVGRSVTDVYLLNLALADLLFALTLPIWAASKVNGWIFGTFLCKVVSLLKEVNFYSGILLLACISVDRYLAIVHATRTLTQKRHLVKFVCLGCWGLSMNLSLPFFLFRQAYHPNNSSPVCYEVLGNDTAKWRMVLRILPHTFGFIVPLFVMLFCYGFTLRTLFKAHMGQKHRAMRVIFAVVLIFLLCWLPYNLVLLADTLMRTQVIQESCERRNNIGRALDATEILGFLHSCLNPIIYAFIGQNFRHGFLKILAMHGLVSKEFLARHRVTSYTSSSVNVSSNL

[4] = DRUGMATRIX: Potassium Channel [KATP] radioligand binding (ligand: [3H] Glyburide); assay type: cell membranes, Membrane; conditions: hit-t15, Not Active = under 50% inhibition at 10 µM
[5] = target: Matrix metalloproteinase-9 (Homo sapiens, UniProt P14780); assay: biochemical; assay type: cell-based;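 also: inhibition of isolated MMP-9 enzyme activity toward a synthetic peptide substrate, from the DrugMatrix protease screening panel; in other assays of this panel Not Active means under 50% inhibition at 10 µM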
Matrix metalloproteinase-9, sequence (P14780 whole entry): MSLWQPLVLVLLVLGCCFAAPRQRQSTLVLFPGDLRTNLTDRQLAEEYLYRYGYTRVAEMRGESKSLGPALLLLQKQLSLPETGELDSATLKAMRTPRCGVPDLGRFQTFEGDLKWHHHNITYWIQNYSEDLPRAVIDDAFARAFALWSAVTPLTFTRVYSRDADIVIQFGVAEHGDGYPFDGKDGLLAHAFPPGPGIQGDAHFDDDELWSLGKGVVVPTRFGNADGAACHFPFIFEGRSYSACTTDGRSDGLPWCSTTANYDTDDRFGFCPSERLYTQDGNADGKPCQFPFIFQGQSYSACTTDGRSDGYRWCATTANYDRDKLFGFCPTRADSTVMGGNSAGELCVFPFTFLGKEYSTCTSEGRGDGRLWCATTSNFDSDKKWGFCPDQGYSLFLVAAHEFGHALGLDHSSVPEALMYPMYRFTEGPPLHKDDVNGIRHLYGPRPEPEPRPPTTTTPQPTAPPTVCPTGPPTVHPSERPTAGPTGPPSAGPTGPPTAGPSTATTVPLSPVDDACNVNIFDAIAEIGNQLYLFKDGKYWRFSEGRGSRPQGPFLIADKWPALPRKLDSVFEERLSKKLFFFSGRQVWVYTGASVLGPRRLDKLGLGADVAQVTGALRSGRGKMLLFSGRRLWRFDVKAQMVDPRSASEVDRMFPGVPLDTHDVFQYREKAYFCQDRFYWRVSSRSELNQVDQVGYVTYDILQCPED

[6] = target: Protein phosphatase 3 catalytic subunit alpha (Homo sapiens, UniProt Q08209); set-up: species or system Escherichia coli
[7] = target: T4, Receptor-type tyrosine-protein phosphatase C (Homo sapiens, UniProt P08575); set-up: species or system Escherichia coli
T4 sequence (P08575 whole entry): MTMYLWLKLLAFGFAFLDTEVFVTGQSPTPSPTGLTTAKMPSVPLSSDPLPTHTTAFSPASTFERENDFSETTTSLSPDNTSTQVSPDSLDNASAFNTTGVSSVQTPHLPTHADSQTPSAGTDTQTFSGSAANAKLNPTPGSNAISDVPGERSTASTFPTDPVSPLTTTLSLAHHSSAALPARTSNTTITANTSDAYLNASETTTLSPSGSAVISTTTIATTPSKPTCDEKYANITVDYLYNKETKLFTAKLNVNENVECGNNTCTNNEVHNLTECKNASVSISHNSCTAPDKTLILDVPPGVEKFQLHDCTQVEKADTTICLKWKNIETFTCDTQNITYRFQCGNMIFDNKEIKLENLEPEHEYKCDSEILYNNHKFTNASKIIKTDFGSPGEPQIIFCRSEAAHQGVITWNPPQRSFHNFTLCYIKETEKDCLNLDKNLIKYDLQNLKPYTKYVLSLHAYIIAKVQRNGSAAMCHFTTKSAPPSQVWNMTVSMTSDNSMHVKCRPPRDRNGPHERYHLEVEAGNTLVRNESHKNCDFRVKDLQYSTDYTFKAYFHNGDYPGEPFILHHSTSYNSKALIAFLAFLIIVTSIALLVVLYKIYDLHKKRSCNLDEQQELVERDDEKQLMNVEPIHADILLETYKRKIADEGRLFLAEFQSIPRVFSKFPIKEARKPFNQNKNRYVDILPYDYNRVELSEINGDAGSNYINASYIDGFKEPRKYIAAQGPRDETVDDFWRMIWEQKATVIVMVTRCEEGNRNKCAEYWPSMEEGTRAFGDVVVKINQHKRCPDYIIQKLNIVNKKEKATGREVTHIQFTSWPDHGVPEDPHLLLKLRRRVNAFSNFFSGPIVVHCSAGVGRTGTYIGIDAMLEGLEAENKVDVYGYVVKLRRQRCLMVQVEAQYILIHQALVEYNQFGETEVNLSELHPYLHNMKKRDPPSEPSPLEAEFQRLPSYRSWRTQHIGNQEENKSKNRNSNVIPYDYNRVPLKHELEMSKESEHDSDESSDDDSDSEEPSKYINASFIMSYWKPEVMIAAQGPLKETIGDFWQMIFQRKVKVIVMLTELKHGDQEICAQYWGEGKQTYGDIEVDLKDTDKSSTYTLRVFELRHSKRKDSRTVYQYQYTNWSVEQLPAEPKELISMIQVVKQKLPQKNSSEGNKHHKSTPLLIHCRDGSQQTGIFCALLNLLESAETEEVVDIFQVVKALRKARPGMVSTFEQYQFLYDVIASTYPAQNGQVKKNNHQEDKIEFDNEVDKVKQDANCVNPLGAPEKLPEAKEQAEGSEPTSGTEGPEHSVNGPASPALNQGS

Structure (SMILES)	IC50 [1]	IC50 [2]	IC50 [3]	IC50 [4]	Ki [4]	IC50 [5]	IC50 [6]	IC50 [7]	IC50 ([5]; read-out: IC50)	IC50 ([4]; read-out: IC50)	Ki ([4]; read-out: Ki)
COc1ccccc1OCC(O)COC(N)=O (stereo not drawn) [METHOCARBAMOL]	Not Active	Not Active	Not Active	Not Active	Not Active	Not Active	Not Active	Not Active	–	–	–
CO[C@@]1(NC(=O)CSCC#N)C(=O)N2C(C(=O)O)=C(CSc3nnnn3C)CS[C@@H]21 [CEFMETAZOLE]	Not Active	Not Active	Not Active	Not Active	Not Active	Not Active	Not Active	Not Active	–	–	–
C=C(CC)C(=O)c1ccc(OCC(=O)O)c(Cl)c1Cl [ETHACRYNIC ACID]	Not Active	Not Active	Not Active	Not Active	Not Active	Not Active	Not Active	Not Active	–	–	–
Oc1ccccc1O [CATECHOL]	Not Active	Not Active	Not Active	Not Active	Not Active	–	Not Active	Not Active	23400 nM	–	–
CC(C)(CO)C(O)C(=O)NCCCO (stereo not drawn) [PANTHENOL]	Not Active	Not Active	Not Active	Not Active	Not Active	Not Active	Not Active	Not Active	–	–	–
NC(=O)N1c2ccccc2C=Cc2ccccc21 [CARBAMAZEPINE]	Not Active	Not Active	Not Active	Not Active	Not Active	Not Active	Not Active	Not Active	–	–	–
CN(Cc1cnc2nc(N)nc(N)c2n1)c1ccc(C(=O)N[C@@H](CCC(=O)O)C(=O)O)cc1 [METHOTREXATE]	Not Active	Not Active	Not Active	Not Active	Not Active	Not Active	Not Active	Not Active	–	–	–
O=P1(N(CCCl)CCCl)NCCCO1 (stereo not drawn) [CYCLOPHOSPHAMIDE ANHYDROUS]	Not Active	Not Active	Not Active	Not Active	Not Active	Not Active	Not Active	Not Active	–	–	–
C[C@]12CCC(=O)C=C1CC[C@@H]1[C@@H]2[C@@H](O)C[C@@]2(C)[C@H]1CC[C@]2(O)C(=O)CO [HYDROCORTISONE]	Not Active	Not Active	Not Active	Not Active	Not Active	Not Active	Not Active	Not Active	–	–	–
Cc1cccc(Nc2ccccc2C(=O)O)c1C [MEFENAMIC ACID]	Not Active	Not Active	Not Active	Not Active	Not Active	Not Active	Not Active	Not Active	–	–	–
CCn1cc(C(=O)O)c(=O)c2cc(F)c(N3CCNCC3)nc21 [ENOXACIN]	Not Active	Not Active	Not Active	Not Active	Not Active	Not Active	Not Active	Not Active	–	–	–
Cc1c(N(C)CS(=O)(=O)[O-])c(=O)n(-c2ccccc2)n1C.[Na+] [DIPYRONE SODIUM]	Not Active	Not Active	Not Active	Not Active	Not Active	Not Active	Not Active	Not Active	–	–	–
C#C[C@]1(O)CC[C@H]2[C@@H]3CCC4=Cc5oncc5C[C@]4(C)[C@H]3CC[C@@]21C [DANAZOL]	Not Active	Not Active	Not Active	Not Active	Not Active	Not Active	Not Active	Not Active	–	–	–
CC(=O)O[C@]1(C(C)=O)CC[C@H]2[C@@H]3C=C(C)C4=CC(=O)CC[C@]4(C)[C@H]3CC[C@@]21C [MEGESTROL ACETATE]	Not Active	Not Active	Not Active	Not Active	Not Active	Not Active	Not Active	Not Active	–	–	–
CCOC(=O)n1ccn(C)c1=S [CARBIMAZOLE]	Not Active	Not Active	Not Active	Not Active	Not Active	Not Active	Not Active	Not Active	–	–	–
CN1C(=O)CN=C(c2ccccc2)c2cc(Cl)ccc21 [DIAZEPAM]	Not Active	Not Active	Not Active	Not Active	Not Active	Not Active	Not Active	Not Active	–	–	–
NC[C@H]1O[C@H](O[C@H]2[C@H](O)[C@@H](O[C@H]3O[C@H](CO)[C@@H](O)[C@H](N)[C@H]3O)[C@H](N)C[C@@H]2N)[C@H](O)[C@@H](O)[C@@H]1O [KANAMYCIN]	Not Active	Not Active	Not Active	Not Active	Not Active	Not Active	Not Active	Not Active	–	–	–
CC[C@H](C)C(=O)O[C@H]1C[C@@H](C)C=C2C=C[C@H](C)[C@H](CC[C@@H]3C[C@@H](O)CC(=O)O3)[C@H]21 [LOVASTATIN]	Not Active	Not Active	Not Active	–	–	Not Active	Not Active	Not Active	–	–	–
Cc1cnc(C(=O)NCCc2ccc(S(=O)(=O)NC(=O)NC3CCCCC3)cc2)cn1 [GLIPIZIDE]	Not Active	Not Active	Not Active	–	–	Not Active	–	–	–	398 nM	45 nM
